Measurements reported in US20220323406A1, “METHODS AND COMPOSITIONS FOR DIFFERENTIATING STEM CELLS” (Massachusetts Institute of Technology, priority 2019, published 2022).

Legend:
[1] = test system: ENR+CD organoids (ISC to Paneth cell differentiation); assay: Primary screen: basal (non-stimulated) lysozyme secretion LYZ.NS, 2.5-D 384-well ENR+CD organoid differentiation; type: cell-based, mouse; conditions: for Z.LYZ.NS: standard z score
Excerpt: (§1) High-throughput screening.

[2] = test system: ENR+CD organoids (ISC to Paneth cell differentiation); assay: Primary screen: CCh-stimulated lysozyme secretion LYZ.S, 2.5-D 384-well ENR+CD organoid differentiation; type: cell-based, mouse; conditions: primary screen
Excerpt: as §1

[3] = test system: ENR+CD organoids (ISC to Paneth cell differentiation); assay: Secondary (validation) screen: LYZ.NS basal lysozyme secretion, 2.5-D 384-well ENR+CD organoids; type: cell-based, mouse; conditions: 6-day ENR+CD, vs ENR+CD+DMSO
Description: (§2) Drugs were tested at a narrowed dose range around each treatment's identified optimal dose from the primary screen (4× below, 2× above and below).
as §1
(§3) Secondary lysozyme secretion assay screen. Confirmatory secondary screening with primary hits was performed using the above 384-well plate method. The screen was conducted with 4-plate replicates with a base media of ENR+CD. Media was supplemented with compound at day 0 and day 3 (n=8 well replicates per dose) at four different doses: two-fold above, two-fold below, and four-fold below the optimal final dose for each respective treatment. Additionally, each plate carried a large number of ENR+DMSO or ENR+CD+DMSO (vehicle) control wells (n=100 for ATP, and n=25 for LYZ.NS and LYZ.S) for robust normalization. ATP, non-stimulated lysozyme activity and CCh-stimulated lysozyme activity was again measured and the collected data was again processed in a custom R-script, per primary screen with slight modification. Values were log10 transformed, and a plate-wise FC was calculated for each well based on the median value of ENR+CD+DMSO (vehicle) control wells to normalize plate to plate variability.

[4] = test system: ENR+CD organoids (ISC to Paneth cell differentiation); assay: Secondary (validation) screen: LYZ.S CCh-stimulated lysozyme secretion, 2.5-D 384-well ENR+CD organoids; type: cell-based, mouse; conditions: 6-day ENR+CD, vs ENR+CD+DMSO
Description: as §2, §1, §3

ENR+CD organoids [5] = assay: Secondary (validation) screen: ATP (CTG) assay, 2.5-D 384-well ENR+CD organoids; type: cell-based, mouse; conditions: 6-day ENR+CD, vs ENR+CD+DMSO
Description: as §2, §1, §3

ENR+CD organoids [6] = assay: Primary screen: ATP (CellTiter-Glo 3D, CTG) cell number/viability, 2.5-D 384-well ENR+CD organoids; conditions: primary screen; for Z.CTG: standard z score;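 on all read-outs here: compounds given at plating and again on day 3 over a 6-day differentiation from ENR+CV stem-cell-enriched precursors, ATP measured on day 6, plate median as control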
[7] = dose 0.08 uM, FC relative to plate median
[8] = dose 0.40 uM, FC relative to plate median
[9] = dose 2.00 uM, FC relative to plate median
[10] = dose 10.00 uM, FC relative to plate median

For `NC(=O)c1ccc(-c2nc(-c3ccccn3)c(-c3ccc4c(c3)OCO4)[nH]2)cc1` [SB431542], the “primary screen hit call (SSMD and z-scored FC cutoffs in both LYZ assays)” value ([1]; LYZ.NS and LYZ.S, 0.08-10 uM, 6 days ENR+CD) was “selected as a hit”, the “performance on both LYZ assays compared with LY215799” value ([1]; primary screen) was “performed almost identically to LY215799” and the Dose.FC.LYZ.NS ([1]; primary screen, dose 0.08 uM, FC relative to plate median) was 0.141 log2 fold change. It also gave a Z.LYZ.NS ([1]; primary screen, dose 0.08 uM) of 1.225, a Dose.FC.LYZ.NS ([1]; primary screen, dose 0.40 uM, FC relative to plate median) of 0.174 log2 fold change and a Z.LYZ.NS ([1]; primary screen, dose 0.40 uM) of 1.514. The Dose.FC.LYZ.NS ([1]; primary screen, dose 2.00 uM, FC relative to plate median) was 0.187 log2 fold change, the Z.LYZ.NS ([1]; primary screen, dose 2.00 uM) was 1.632 and the Dose.FC.LYZ.NS ([1]; primary screen, dose 10.00 uM, FC relative to plate median) was 0.040 log2 fold change. The Z.LYZ.NS ([1]; primary screen, dose 10.00 uM) was 0.346, the Dose.FC.LYZ.S [2, 7] was 0.135 log2 fold change and the Dose.FC.LYZ.S [2, 8] was 0.309 log2 fold change. For the same compound, the Dose.FC.LYZ.S [2, 9] was 0.223 log2 fold change, the Dose.FC.LYZ.S [2, 10] was 0.126 log2 fold change and the Dose.FC.LYZ.NS ([3]; 0.06 uM) was 0.089 log2 fold change. The Z.LYZ.NS ([3]; 0.06 uM) was 0.709, the repSSMD.LYZ.NS ([3]; 0.06 uM) was 1.073 and the Dose.FC.LYZ.NS ([3]; 0.24 uM) was 0.105 log2 fold change. It also gave a Z.LYZ.NS ([3]; 0.24 uM) of 0.838, a repSSMD.LYZ.NS ([3]; 0.24 uM) of 0.830 and a Dose.FC.LYZ.NS ([3]; 0.48 uM) of −0.016 log2 fold change. For the same compound, the Z.LYZ.NS ([3]; 0.48 uM) was −0.128, the repSSMD.LYZ.NS ([3]; 0.48 uM) was −0.149 and the Dose.FC.LYZ.NS ([3]; […]) was 0.116 log2 fold change. It also gave a Dose.FC.LYZ.S ([4]; 0.06 uM) of 0.067 log2 fold change, a Z.LYZ.S ([4]; 0.06 uM) of 0.514 and a repSSMD.LYZ.S ([4]; 0.06 uM) of 0.855. It also gave a Dose.FC.LYZ.S ([4]; 0.24 uM) of 0.027 log2 fold change, a Z.LYZ.S ([4]; 0.24 uM) of 0.211 and a repSSMD.LYZ.S ([4]; 0.24 uM) of 0.301. The Dose.FC.LYZ.S ([4]; 0.48 uM) was −0.050 log2 fold change, the Z.LYZ.S ([4]; 0.48 uM) was −0.387 and the repSSMD.LYZ.S ([4]; 0.48 uM) was −0.449. The Dose.FC.LYZ.S ([4]; […]) was 0.072 log2 fold change, the Dose.FC.CTG (ENR+CD organoids [5]; 0.06 uM) was 0.160 log2 fold change and the Z.CTG (ENR+CD organoids [5]; 0.06 uM) was 1.439. It also gave a repSSMD.CTG (ENR+CD organoids [5]; 0.06 uM) of 0.654, a Dose.FC.CTG (ENR+CD organoids [5]; 0.24 uM) of 0.023 log2 fold change and a Z.CTG (ENR+CD organoids [5]; 0.24 uM) of 0.206. The repSSMD.CTG (ENR+CD organoids [5]; 0.24 uM) was 0.141, the Dose.FC.CTG (ENR+CD organoids [5]; 0.48 uM) was 0.083 log2 fold change and the Z.CTG (ENR+CD organoids [5]; 0.48 uM) was 0.752. For the same compound, the repSSMD.CTG (ENR+CD organoids [5]; 0.48 uM) was 0.527, the Dose.FC.CTG (ENR+CD organoids [5]; […]) was 0.120 log2 fold change and the “increase of cell viability compared with LY215799” value (ENR+CD organoids [6]) was “outperformed LY215799”. It also gave a Dose.FC.CTG (ENR+CD organoids [6]; [7]) of 0.380 log2 fold change, a Z.CTG (ENR+CD organoids [6]; dose 0.08 uM) of 0.907 and a Dose.FC.CTG (ENR+CD organoids [6]; [8]) of 0.473 log2 fold change. For the same compound, the Z.CTG (ENR+CD organoids [6]; dose 0.40 uM) was 1.130, the Dose.FC.CTG (ENR+CD organoids [6]; [9]) was 0.316 log2 fold change and the Z.CTG (ENR+CD organoids [6]; dose 2.00 uM) was 0.754. It also gave a Dose.FC.CTG (ENR+CD organoids [6]; [10]) of 0.155 log2 fold change and a Z.CTG (ENR+CD organoids [6]; dose 10.00 uM) of 0.370.

With `COc1cc(Nc2c(C#N)cnc3cc(OCCCN4CCN(C)CC4)c(OC)cc23)c(Cl)cc1Cl` [Bosutinib (SKI-606), Bosutinib, reference compound] the Dose.FC.LYZ.NS ([1]; primary screen, dose 0.08 uM) was 0.213 log2 fold change, the “Z.LYZ.NS (standard z score)” value ([1]; primary screen, dose 0.08 uM) was 1.858 and the Dose.FC.LYZ.NS ([1]; primary screen, dose 0.40 uM) was 0.130 log2 fold change. The “Z.LYZ.NS (standard z score)” value ([1]; primary screen, dose 0.40 uM) was 1.129, the Dose.FC.LYZ.NS ([1]; primary screen, dose 2.00 uM) was −0.049 log2 fold change and the “Z.LYZ.NS (standard z score)” value ([1]; primary screen, dose 2.00 uM) was −0.425. For the same compound, the Dose.FC.LYZ.NS ([1]; primary screen, dose 10.00 uM) was −0.115 log2 fold change, the “Z.LYZ.NS (standard z score)” value ([1]; primary screen, dose 10.00 uM) was −1.005 and the Dose.FC.LYZ.S ([2]; dose 0.08 uM) was 0.308 log2 fold change. It also gave a Dose.FC.LYZ.S ([2]; dose 0.40 uM) of 0.208 log2 fold change, a Dose.FC.LYZ.S ([2]; dose 2.00 uM) of −0.058 log2 fold change and a Dose.FC.LYZ.S ([2]; dose 10.00 uM) of −0.223 log2 fold change. The Dose.FC.LYZ.NS ([3]; 0.02 uM) was 0.133 log2 fold change, the Dose.FC.LYZ.NS ([3]; 0.04 uM) was −0.067 log2 fold change and the Dose.FC.LYZ.NS ([3]; 0.08 uM) was −0.070 log2 fold change. It also gave a Dose.FC.LYZ.NS ([3]; […]) of 0.068 log2 fold change, a Dose.FC.LYZ.S ([4]; 0.02 uM) of 0.103 log2 fold change and a Dose.FC.LYZ.S ([4]; 0.04 uM) of −0.086 log2 fold change. For the same compound, the Dose.FC.LYZ.S ([4]; 0.08 uM) was −0.072 log2 fold change, the Dose.FC.LYZ.S ([4]; […]) was 0.007 log2 fold change and the Dose.FC.CTG (ENR+CD organoids [5]; 0.02 uM) was 0.216 log2 fold change. For the same compound, the Dose.FC.CTG (ENR+CD organoids [5]; 0.04 uM) was 0.139 log2 fold change, the Dose.FC.CTG (ENR+CD organoids [5]; 0.08 uM) was 0.082 log2 fold change and the Dose.FC.CTG (ENR+CD organoids [5]; […]) was 0.128 log2 fold change. For the same compound, the Dose.FC.CTG (ENR+CD organoids [6]; dose 0.08 uM) was 0.628 log2 fold change, the Dose.FC.CTG (ENR+CD organoids [6]; dose 0.40 uM) was 0.302 log2 fold change and the Dose.FC.CTG (ENR+CD organoids [6]; dose 2.00 uM) was −0.169 log2 fold change. For the same compound, the Dose.FC.CTG (ENR+CD organoids [6]; dose 10.00 uM) was −0.668 log2 fold change.
